Read-outs that look alike come from different tables or passages of the source.
Legend:
[1] = Softening point ring & ball of rejuvenated bitumen; details: bitumen 20/30 rejuvenated with 5% of the compound, 180° C., 30 minutes
[2] = TD NMR relaxation time measurements (SE-CPMG, multicomponent fitting); type: physicochemical; details: for 1/<1/T2e>: harmonic average relaxation time of the mobile components
Description: TD NMR, also known as NMR relaxometry, is a known NMR technique and relies on measuring the relaxation times of the nuclear spin system instead of frequency-domain spectra. […] Also, sample preparation is much simpler as there are no concerns about sample homogeneity and no solvents are needed.
Like that, a clear distinction between protons in a solid, amorphous and liquid component can be made with good accuracy.
Bitumen 20/30 was rejuvenated with some of the here claimed rejuvenating agents according to example 1. The pure bitumen 20/30 as well as the rejuvenated bitumen 20/30 samples were then analyzed by TD NMR. To do so, all samples were heated up to 80° C. to allow filling of the samples into NMR tubes. After that, TD NMR measurements at 30° C., 80° C. and 140° C. were conducted using the SE-CMPG sequence. This sequence consists of a solid echo combined with a so-called CPMG (Carr-Purcell-Meiboom-Gill) train of subsequent spin echoes with alternating phase and is capable of recording the decay of coherence in the transverse nuclear magnetization over about 5 orders of magnitude in time. Depending on the measurement temperature, the experimental data were then fitted with semi-empirically selected multicomponent models involving several Gaussian and exponential components:
S(t)=[pg1 exp(−(t/T2g1)^2)+pg2 exp(−(t/T2g2)^2)]+pe1 exp(−t/T2e1)[pe2 exp(−t/T2e2)+pe3 exp(−t/T2e3)]
In order to assess the effect of temperature on the molecular mobility of the bitumen, experiments were conducted at temperatures of 30° C., 80° C. and 140° C., and the following models turned out to provide adequate fits of the respective normalized signal decay curves: • two Gaussians and one exponential at 30° C., • two Gaussians and two exponentials at 80° C., • three exponentials at 140° C.
From the fitting, different values can be obtained: • The p values (pg1, pg2, pe1, pe2 and pe3), indicating the signal fraction of the individual component scaled in the range from 0 to 1 • The T2 values (T2g1, T2g2, T2e1, T2e2 and T2e3), indicating the relaxation times that correspond to each of the individual components. The longer the relaxation time, the higher the molecular mobility of the respective component • In addition to the values T2e1, T2e2 and T2e3, we also calculated the average relaxation time of the mobile components, 1/<1/T2e>, for the temperatures at which more than one mobile component exist (80 and 140° C.). 1/<1/T2e> Is calculated as the harmonic average of the relaxation times involved:
[formula] • The type of the component, those being: • g1: the rigid component • g2: the partially mobile component • e1, e2 and e3: mobile components with increasingly high local molecular mobilities
It is believed that the rigid component g1 is directly correlated with the amount of the asphaltene aggregates. The mobile component(s) on the other hand can be attributed to the maltene phase.

[3] = Softening point of rejuvenated RAP bitumen; type: physicochemical; details: bitumen extracted from RAP + 5% compound
[4] = MSCR elastic recovery of rejuvenated RAP bitumen; type: physicochemical; details: bitumen extracted from RAP + 5% compound
[5] = MSCR elastic recovery of rejuvenated aged bitumen; type: physicochemical; details: aged bitumen 50/70 PCK Schwedt + 5% compound
[6] = Softening point of rejuvenated polymer-modified bitumen; type: physicochemical; details: Olexobit 45 + 5% compound
[7] = type: physicochemical; details: aged bitumen 50/70 BP + 5% compound
[8] = Loss tangent from DSR frequency sweep at 60° C.; type: physicochemical
Description: In addition, it could be shown that additives according to the present invention perform most of the times better than the common benchmarks according to the standard testing techniques for the low, mid and high temperature range. What cannot be extracted from these measurements however is an indication of the working mechanism.

[9] = type: physicochemical; details: Olexobit 45 + 5% compound
[10] = Force ductility of rejuvenated polymer-modified bitumen; type: physicochemical; details: Olexobit 45 + 5% compound
Description: (§1) Herewith, it will be shown that the positive effects of the here claimed rejuvenating agents can also be applied to PmB, in this case Olexobit 45. Olexobit 45 was therefore rejuvenated according to the procedure of Example 1.

[11] = MSCR elastic recovery of rejuvenated aged bitumen; type: physicochemical; details: aged bitumen 50/70 BP + 5% compound
[12] = BBR of rejuvenated polymer-modified bitumen; type: physicochemical; details: Olexobit 45 + 5% compound
Experimental: Different bitumen samples were rejuvenated as in Example 1, and the BBR values S (flexural creep stiffness) and m […] were evaluated at −16° C. The results were compared to the not rejuvenated bitumen sample as well as to the bitumen rejuvenated with the benchmark RheoFalt® HP-AM (Comp. 1.3).

[13] = Softening point of rejuvenated aged bitumen; type: physicochemical; details: aged bitumen 50/70 PCK Schwedt + 5% compound
[14] = type: physicochemical; details: aged bitumen 50/70 PCK Schwedt + 5% compound
[15] = Ageing index (RTFOT ageing) of rejuvenated polymer-modified bitumen; type: physicochemical; details: Olexobit 45 + 5% compound; viscosity after ageing divided by viscosity before ageing
Description: as §1

[16] = bitumen 20/30 + 5% compound
[17] = 30° C., bitumen 20/30 + additive
[18] = 80° C., bitumen 20/30 + additive
[19] = 140° C., bitumen 20/30 + additive

SP [° C.] (softening point) [1]: 50.0 °C
T2e1 [2, 17]: 0.20 ms
T2g1 [2, 17]: 0.016 ms
T2g2 [2, 17]: 0.044 ms
pe1 ([2]; 30° C., mobile component, bitumen 20/30 + additive): 0.41
pg2 ([2]; 30° C., partially mobile component, bitumen 20/30 + additive): 0.18
pg1 ([2]; 30° C., signal fraction of rigid component, bitumen 20/30 + additive): 0.40
T2e1 [2, 18]: 0.47 ms
T2e2 [2, 18]: 2.42 ms
T2g1 [2, 18]: 0.017 ms
T2g2 [2, 18]: 0.053 ms
pe1 [2, 18]: 0.46
pe2 [2, 18]: 0.35
pg1 [2, 18]: 0.10
pg2 [2, 18]: 0.078
1/<1/T2e> ([2]; 80° C.): 0.72 ms
T2e1 [2, 19]: 0.20 ms
T2e2 [2, 19]: 4.45 ms
T2e3 [2, 19]: 24.51 ms
pe1 [2, 19]: 0.18
pe2 [2, 19]: 0.47
pe3 [2, 19]: 0.34
1/<1/T2e> ([2]; 140° C.): 0.94 ms
SP [° C.] [3]: 57.0 °C
MSCR % Rec. (0.1 kPa) ([4]; 0.1 kPa): 10%
MSCR % Rec. (1.6 kPa) ([4]; 1.6 kPa): 6%
MSCR % Rec. (3.2 kPa) ([4]; 3.2 kPa): 3%
MSCR % Rec. (0.1 kPa) ([5]; 0.1 kPa): 5%
MSCR % Rec. (1.6 kPa) ([5]; 1.6 kPa): 1%
MSCR % Rec. (3.2 kPa) ([5]; 3.2 kPa): 0%
SP [° C.] [6]: 48.0 °C
η(135° C.) [mPas] [7]: 800 mPas
tan δ ([8]; aged bitumen 50/70 BP + 5% compound, lowest frequency): 75
tan δ ([8]; aged bitumen 50/70 PCK Schwedt + 5% compound, lowest frequency): 105
tan δ ([8]; bitumen 20/30 + 5% compound, lowest frequency (0.01 rad/s)): 55
tan δ ([8]; bitumen extracted from RAP + 5% compound, lowest frequency): 45
η(135° C.) [mPas] [9]: 650 mPas
Force Ductility Fmax [N] [10]: 14 N
Force Ductility W [J/cm^2] [10]: 1.1 J/cm^2
MSCR % Rec. (0.1 kPa) ([11]; 0.1 kPa): 7%
MSCR % Rec. (1.6 kPa) ([11]; 1.6 kPa): 3%
MSCR % Rec. (3.2 kPa) ([11]; 3.2 kPa): 1%
BBR S-value [MPa] [12]: 120 MPa
BBR m-value [12]: 0.39
SP [° C.] [13]: 52.5 °C
η(135° C.) [mPas] [14]: 800 mPas
AI (ageing index) [15]: 2.2
η(135° C.) [mPas] [16]: 900 mPas
Substance: Polypropylenglycol bis glycidylether

Reference: US20230220206A1, “REJUVENATING AGENTS FOR ASPHALT RECYCLING” (BASF SE, priority 2020, published 2023)
